Measured values taken from PubChem BioAssay AID1259407 (Chemical Carcinogenesis Research Information System (CCRIS), 2018).
Activity calls are given as the source filed them. The rule behind the calls is not given here.

System: CCRIS mutagenicity, Ames/micronucleus/aberration tests
Assay: CCRIS mutagenicity studies
[1] = Test System: AMES SALMONELLA TYPHIMURIUM, Strain/Indicator: TA98, Metabolic Activation: NONE, Method: PREINCUBATION
[2] = Test System: AMES SALMONELLA TYPHIMURIUM, Strain/Indicator: TA100, Metabolic Activation: NONE, Method: PREINCUBATION
[3] = Test System: AMES SALMONELLA TYPHIMURIUM, Strain/Indicator: TA1535, Metabolic Activation: NONE, Method: PREINCUBATION
[4] = Test System: AMES SALMONELLA TYPHIMURIUM, Strain/Indicator: TA1537, Metabolic Activation: NONE, Method: PREINCUBATION
[5] = Test System: AMES SALMONELLA TYPHIMURIUM, Strain/Indicator: TA98, Metabolic Activation: NONE, Method: STANDARD PLATE
[6] = Test System: AMES SALMONELLA TYPHIMURIUM, Strain/Indicator: TA100, Metabolic Activation: NONE, Method: STANDARD PLATE
[7] = Test System: AMES SALMONELLA TYPHIMURIUM, Strain/Indicator: TA100, Metabolic Activation: RAT, LIVER, S-9, AROCLOR 1254, Method: STANDARD PLATE

## CCCCCCCCCCO
[1]
  mutagenic call: inactive; negative
Test System: AMES SALMONELLA TYPHIMURIUM, Strain/Indicator: TA98, Metabolic Activation: RAT, LIVER, S-9, PHENOBARBITAL AND BETA-NAPHTHOFLAVONE, Method: PREINCUBATION
  mutagenic call: inactive; negative
[2]
  mutagenic call: inactive; negative
Test System: AMES SALMONELLA TYPHIMURIUM, Strain/Indicator: TA100, Metabolic Activation: RAT, LIVER, S-9, PHENOBARBITAL AND BETA-NAPHTHOFLAVONE, Method: PREINCUBATION
  mutagenic call: inactive; negative
Test System: AMES SALMONELLA TYPHIMURIUM, Strain/Indicator: TA102, Metabolic Activation: NONE, Method: PREINCUBATION
  mutagenic call: inactive; negative
Test System: AMES SALMONELLA TYPHIMURIUM, Strain/Indicator: TA102, Metabolic Activation: RAT, LIVER, S-9, SODIUM PHENOBARBITAL AND 5,6-BENZOFLAVONE, Method: PREINCUBATION
  mutagenic call: inactive; negative
Test System: AMES SALMONELLA TYPHIMURIUM, Strain/Indicator: TA104, Metabolic Activation: NONE, Method: PREINCUBATION
  mutagenic call: inactive; negative
Test System: AMES SALMONELLA TYPHIMURIUM, Strain/Indicator: TA104, Metabolic Activation: RAT, LIVER, S-9, SODIUM PHENOBARBITAL AND 5,6-BENZOFLAVONE, Method: PREINCUBATION
  mutagenic call: inactive; negative
[3]
  mutagenic call: inactive; negative
Test System: AMES SALMONELLA TYPHIMURIUM, Strain/Indicator: TA1535, Metabolic Activation: RAT, LIVER, S-9, PHENOBARBITAL AND BETA-NAPHTHOFLAVONE, Method: PREINCUBATION
  mutagenic call: inactive; negative
[4]
  mutagenic call: inactive; negative
Test System: AMES SALMONELLA TYPHIMURIUM, Strain/Indicator: TA1537, Metabolic Activation: RAT, LIVER, S-9, PHENOBARBITAL AND BETA-NAPHTHOFLAVONE, Method: PREINCUBATION
  mutagenic call: inactive; negative
Test System: CHINESE HAMSTER V-79, Strain/Indicator: V-79 (HPRT)/6-THIOGUANINE, Metabolic Activation: NONE, Method: STANDARD PLATE
  mutagenic call: inactive; negative
Test System: CHINESE HAMSTER V-79, Strain/Indicator: V-79 (HPRT)/6-THIOGUANINE, Metabolic Activation: RAT LIVER S-9, Method: STANDARD PLATE
  mutagenic call: inactive; negative
Test System: E. COLI, Strain/Indicator: WP2UVRA/PKM101, Metabolic Activation: NONE, Method: PREINCUBATION
  mutagenic call: inactive; negative
Test System: E. COLI, Strain/Indicator: WP2UVRA/PKM101, Metabolic Activation: RAT, LIVER, S-9, PHENOBARBITAL AND BETA-NAPHTHOFLAVONE, Method: PREINCUBATION
  mutagenic call: inactive; negative
Test System: E. COLI, Strain/Indicator: WP2UVRA, Metabolic Activation: NONE, Method: PREINCUBATION
  mutagenic call: inactive; negative
Test System: E. COLI, Strain/Indicator: WP2UVRA, Metabolic Activation: RAT, LIVER, S-9, PHENOBARBITAL AND BETA-NAPHTHOFLAVONE, Method: PREINCUBATION
  mutagenic call: inactive; negative

## CCOP(=O)(OCC)Oc1cc(-c2ccccc2)on1
[5]
  mutagenic call: inactive; negative
Test System: AMES SALMONELLA TYPHIMURIUM, Strain/Indicator: TA98, Metabolic Activation: RAT, LIVER, S-9, Method: STANDARD PLATE
  mutagenic call: inactive; negative
[6]
  mutagenic call: inactive; negative
Test System: AMES SALMONELLA TYPHIMURIUM, Strain/Indicator: TA100, Metabolic Activation: RAT, LIVER, S-9, Method: STANDARD PLATE
  mutagenic call: inactive; negative

## COc1nncc2ccncc12
[1]
  mutagenic call: inactive; negative
Test System: AMES SALMONELLA TYPHIMURIUM, Strain/Indicator: TA98, Metabolic Activation: RAT, LIVER, S-9, PCB, Method: PREINCUBATION
  mutagenic call: inactive; negative
[2]
  mutagenic call: inactive; negative
Test System: AMES SALMONELLA TYPHIMURIUM, Strain/Indicator: TA100, Metabolic Activation: RAT, LIVER, S-9, PCB, Method: PREINCUBATION
  mutagenic call: inactive; negative

## Cc1cc(O)c2c(c1)C(=O)c1c(c(O)cc(O)c1-c1c(O)cc(O)c3c1C(=O)c1cc(C)cc(O)c1C3=O)C2=O
[5]
  mutagenic call: inactive; negative
Test System: AMES SALMONELLA TYPHIMURIUM, Strain/Indicator: TA98, Metabolic Activation: RAT, LIVER, S-9, AROCLOR 1254, Method: STANDARD PLATE
  mutagenic call: inactive; negative
[6]
  mutagenic call: inactive; negative
[7]
  mutagenic call: inactive; negative
Test System: AMES SALMONELLA TYPHIMURIUM, Strain/Indicator: TA1537, Metabolic Activation: NONE, Method: STANDARD PLATE
  mutagenic call: inactive; negative
Test System: AMES SALMONELLA TYPHIMURIUM, Strain/Indicator: TA1537, Metabolic Activation: RAT, LIVER, S-9, AROCLOR 1254, Method: STANDARD PLATE
  mutagenic call: inactive; negative

## CCC(Cl)[N+](=O)[O-] (configuration not stated)
Test System: AMES SALMONELLA TYPHIMURIUM, Strain/Indicator: TA98, Metabolic Activation: HAMSTER, LIVER, S-9, AROCLOR 1254 (30%), Method: PREINCUBATION
  mutagenic call: active; positive
[1]
  mutagenic call: active; positive
Test System: AMES SALMONELLA TYPHIMURIUM, Strain/Indicator: TA98, Metabolic Activation: RAT, LIVER, S-9, AROCLOR 1254 (30%), Method: PREINCUBATION
  mutagenic call: active; positive
Test System: AMES SALMONELLA TYPHIMURIUM, Strain/Indicator: TA100, Metabolic Activation: HAMSTER, LIVER, S-9, AROCLOR 1254 (30%), Method: PREINCUBATION
  mutagenic call: active; positive
[2]
  mutagenic call: active; positive
Test System: AMES SALMONELLA TYPHIMURIUM, Strain/Indicator: TA100, Metabolic Activation: RAT, LIVER, S-9, AROCLOR 1254 (30%), Method: PREINCUBATION
  mutagenic call: active; positive

## CCCCCCOC(=O)c1ccccc1C(=O)OCCCCCC
Test System: AMES SALMONELLA TYPHIMURIUM, Strain/Indicator: TA98, Metabolic Activation: HAMSTER, LIVER, S-9, AROCLOR 1254 (10%), Method: PREINCUBATION
  mutagenic call: inactive; negative
[1]
  mutagenic call: inactive; negative
Test System: AMES SALMONELLA TYPHIMURIUM, Strain/Indicator: TA98, Metabolic Activation: RAT, LIVER, S-9, AROCLOR 1254 (10%), Method: PREINCUBATION
  mutagenic call: inactive; negative
Test System: AMES SALMONELLA TYPHIMURIUM, Strain/Indicator: TA100, Metabolic Activation: HAMSTER, LIVER, S-9, AROCLOR 1254 (10%), Method: PREINCUBATION
  mutagenic call: inactive; negative
[2]
  mutagenic call: inactive; negative
Test System: AMES SALMONELLA TYPHIMURIUM, Strain/Indicator: TA100, Metabolic Activation: RAT, LIVER, S-9, AROCLOR 1254 (10%), Method: PREINCUBATION
  mutagenic call: inactive; negative
Test System: AMES SALMONELLA TYPHIMURIUM, Strain/Indicator: TA1535, Metabolic Activation: HAMSTER, LIVER, S-9, AROCLOR 1254 (10%), Method: PREINCUBATION
  mutagenic call: inactive; negative
[3]
  mutagenic call: inactive; negative
Test System: AMES SALMONELLA TYPHIMURIUM, Strain/Indicator: TA1535, Metabolic Activation: RAT, LIVER, S-9, AROCLOR 1254 (10%), Method: PREINCUBATION
  mutagenic call: inactive; negative
Test System: AMES SALMONELLA TYPHIMURIUM, Strain/Indicator: TA1537, Metabolic Activation: HAMSTER, LIVER, S-9, AROCLOR 1254 (10%), Method: PREINCUBATION
  mutagenic call: inactive; negative
[4]
  mutagenic call: inactive; negative
Test System: AMES SALMONELLA TYPHIMURIUM, Strain/Indicator: TA1537, Metabolic Activation: RAT, LIVER, S-9, AROCLOR 1254 (10%), Method: PREINCUBATION
  mutagenic call: inactive; negative

## O=C(OCCBr)C(=O)OCCBr
[6]
  mutagenic call: active; positive
[7]
  mutagenic call: active; positive
